The source made the active and inactive calls. The rule behind the calls is not given here.
Assays:
[1] = biological target: Bromodomain-containing protein 2 (Homo sapiens, UniProt P25440); test: Inhibition of BRD2 BD1 (unknown origin) incubated for 2 hrs by TR-FRET assay
[2] = biological target: T1, Bromodomain-containing protein 4 (Homo sapiens, UniProt O60885); test: Inhibition of BRD4 BD1 (unknown origin) incubated for 2 hrs by TR-FRET assay
[3] = biological target: T1, Bromodomain-containing protein 4; test: Inhibition of BRD4 BD1/BD2 (unknown origin) incubated for 2 hrs by TR-FRET assay
[4] = biological target: Bromodomain testis-specific protein (Homo sapiens, UniProt Q58F21); test: Inhibition of BRDT BD1 (unknown origin) incubated for 2 hrs by TR-FRET assay
MDA-MB-231 [5] = test: Antiproliferative activity against JQ-1 resistant human MDA-MB-231 cells incubated for 24 hrs by MTT assay; format: functional, cell-based
MDA-MB-231 [6] = test: Inhibition of colony formation in human MDA-MB-231 cells after 7 days by crystal violet staining based assay; format: functional, cell-based; conditions: dose 2.5-10 µM, time 7.0 day
MDA-MB-468 [7] = test: Induction of apoptosis in human MDA-MB-468 cells after 24 hrs by Annexin V-FITC/propidium iodide staining based flow cytometry; format: functional, cell-based; conditions: dose 2.5-10 µM
MDA-MB-231 [8] = test: Induction of apoptosis in human MDA-MB-231 cells assessed as down regulation of Bcl2 after 24 hrs by Western blot analysis; format: functional, cell-based; conditions: dose 2.5-10 µM
MDA-MB-231 [9] = test: Induction of apoptosis in human MDA-MB-231 cells assessed as up regulation of cleaved caspase 3 after 24 hrs by Western blot analysis; format: functional, cell-based; conditions: dose 2.5-10 µM
MDA-MB-468 [10] = test: Induction of autophagy in human MDA-MB-468 cells harboring GFP-mRFP-LC3 assessed as down regulation of p62 level at 5 uM after 24 hrs by Western blot analysis; format: functional, cell-based
MDA-MB-231 [11] = test: Induction of autophagy in human MDA-MB-231 cells harboring GFP-mRFP-LC3 assessed as up regulation of beclin 1 level at 2.5 to 10 uM after 24 hrs by Western blot analysis; format: functional, cell-based; conditions: dose 2.5-10 µM
MDA-MB-468 [12] = test: Induction of autophagy in human MDA-MB-468 cells harboring GFP-mRFP-LC3 assessed as up regulation of beclin 1 level at 2.5 to 10 uM after 24 hrs by Western blot analysis; format: functional, cell-based; conditions: dose 2.5-10 µM
MDA-MB-231 [13] = test: Induction of autophagy in human MDA-MB-231 cells harboring GFP-mRFP-LC3 assessed as up regulation of LC3II level at 2.5 to 10 uM after 24 hrs by Western blot analysis; format: functional, cell-based; conditions: dose 2.5-10 µM
MDA-MB-468 [14] = test: Induction of autophagy in human MDA-MB-468 cells at 5 uM preincubated with 3-MA for 1 hr followed by compound addition and measured after 24 hrs by fluorescence microscopic analysis; format: functional, cell-based
MDA-MB-231 [15] = test: Inhibition of colony formation in human MDA-MB-231 cells at 5 uM after 7 days in presence of 3-MA by crystal violet staining based assay; format: functional, cell-based; conditions: time 7.0 day
MDA-MB-468 [16] = test: Inhibition of colony formation in human MDA-MB-468 cells at 5 uM after 7 days in presence of 3-MA by crystal violet staining based assay; format: functional, cell-based; conditions: time 7.0 day
MDA-MB-231 [17] = test: Induction of apoptosis in human MDA-MB-231 cells at 5 uM preincubated with 3-MA for 1 hr followed by compound addition and measured after 24 hrs by Annexin V-FITC/propidium iodide staining based flow cytometric analysis; format: functional, cell-based
MDA-MB-468 [18] = test: Induction of apoptosis in human MDA-MB-468 cells at 5 uM preincubated with 3-MA for 1 hr followed by compound addition and measured after 24 hrs by Annexin V-FITC/propidium iodide staining based flow cytometric analysis; format: functional, cell-based
[19] = Half life in Sprague-Dawley rat at 1 mg/kg, iv by LC-MS analysis; format: ADME, organism-based; conditions: in vivo
[20] = Half life in Sprague-Dawley rat at 10 mg/kg, po by LC-MS analysis; format: ADME, organism-based; conditions: in vivo
[21] = Cmax in Sprague-Dawley rat at 1 mg/kg, iv by LC-MS analysis; format: ADME, organism-based; design: dose 1 mg/kg, route iv; conditions: in vivo
[22] = AUC(0 to t) in Sprague-Dawley rat at 10 mg/kg, po by LC-MS analysis; format: ADME, organism-based; design: dose 10 mg/kg, route po; conditions: in vivo
[23] = AUC(0 to infinity) in Sprague-Dawley rat at 10 mg/kg, po by LC-MS analysis; format: ADME, organism-based; design: time infinity, dose 10 mg/kg, route po; conditions: in vivo
MDA-MB-231 [24] = test: Antitumor activity against human MDA-MB-231 cells xenografted in po dosed nude BALB/c mouse assessed as tumor growth inhibition administered once daily for 19 days and measured every 3 days; format: functional, organism-based; conditions: dose lower […], dose upper 50.0 mg/kg, time 19.0 day
Mus musculus [25] = test: Toxicity in nude BALB/c mouse xenografted with human MDA-MB-468 cells assessed as change in body weight at 25 to 50 mg/kg, po administered once daily for 19 days and measured every 3 days; format: organism-based; conditions: in vivo, 456 h, dose 25-50 mg/kg, time 19 day
Mus musculus [26] = test: Toxicity in nude BALB/c mouse xenografted with human MDA-MB-468 cells assessed as morphological changes in heart at 25 to 50 mg/kg, po administered once daily for 19 days and measured every 3 days by H and E staining based assay; format: organism-based; conditions: in vivo, 456 h, dose 25-50 mg/kg, time 19 day
Mus musculus [27] = test: Toxicity in nude BALB/c mouse xenografted with human MDA-MB-468 cells assessed as morphological changes in spleen at 25 to 50 mg/kg, po administered once daily for 19 days and measured every 3 days by H and E staining based assay; format: organism-based; conditions: in vivo, 456 h, dose 25-50 mg/kg, time 19 day
Mus musculus [28] = test: Toxicity in nude BALB/c mouse xenografted with human MDA-MB-468 cells assessed as morphological changes in kidney at 25 to 50 mg/kg, po administered once daily for 19 days and measured every 3 days by H and E staining based assay; format: organism-based; conditions: in vivo, 456 h, dose 25-50 mg/kg, time 19 day
Mus musculus [29] = test: Toxicity in nude BALB/c mouse xenografted with human MDA-MB-231 cells assessed as morphological changes in liver at 25 to 50 mg/kg, po administered once daily for 19 days and measured every 3 days by H and E staining based assay; format: organism-based; conditions: in vivo, 456 h, dose 25-50 mg/kg, time 19 day
Mus musculus [30] = test: Toxicity in nude BALB/c mouse xenografted with human MDA-MB-231 cells assessed as morphological changes in heart at 25 to 50 mg/kg, po administered once daily for 19 days and measured every 3 days by H and E staining based assay; format: organism-based; conditions: in vivo, 456 h, dose 25-50 mg/kg, time 19 day
Mus musculus [31] = test: Toxicity in nude BALB/c mouse xenografted with human MDA-MB-231 cells assessed as morphological changes in spleen at 25 to 50 mg/kg, po administered once daily for 19 days and measured every 3 days by H and E staining based assay; format: organism-based; conditions: in vivo, 456 h, dose 25-50 mg/kg, time 19 day
Mus musculus [32] = test: Toxicity in nude BALB/c mouse xenografted with human MDA-MB-231 cells assessed as morphological changes in lung at 25 to 50 mg/kg, po administered once daily for 19 days and measured every 3 days by H and E staining based assay; format: organism-based; conditions: in vivo, 456 h, dose 25-50 mg/kg, time 19 day
Mus musculus [33] = test: Toxicity in nude BALB/c mouse xenografted with human MDA-MB-231 cells assessed as morphological changes in kidney at 25 to 50 mg/kg, po administered once daily for 19 days and measured every 3 days by H and E staining based assay; format: organism-based; conditions: in vivo, 456 h, dose 25-50 mg/kg, time 19 day
MDA-MB-231 [34] = test: Antitumor activity against human MDA-MB-231 cells xenografted in nude BALB/c mouse assessed as tumor growth inhibition at 25 to 50 mg/kg, po administered once daily for 19 days and measured every 3 days by Ki-67 staining based immunohistochemical analysis; format: functional, organism-based; conditions: dose lower […], dose upper 50.0 mg/kg, time 19.0 day
Mus musculus [35] = test: Down regulation of c-Myc expression in BALB/c SCID mouse xenogrfted with human MDA-MB-231 cells at 25 to 50 mg/kg, po administered once daily for 19 days by immunohistochemistry analysis; format: functional, organism-based; conditions: dose lower […], dose upper 50.0 mg/kg, time 19.0 day

Bromodomain-containing protein 2, sequence (P25440 whole entry): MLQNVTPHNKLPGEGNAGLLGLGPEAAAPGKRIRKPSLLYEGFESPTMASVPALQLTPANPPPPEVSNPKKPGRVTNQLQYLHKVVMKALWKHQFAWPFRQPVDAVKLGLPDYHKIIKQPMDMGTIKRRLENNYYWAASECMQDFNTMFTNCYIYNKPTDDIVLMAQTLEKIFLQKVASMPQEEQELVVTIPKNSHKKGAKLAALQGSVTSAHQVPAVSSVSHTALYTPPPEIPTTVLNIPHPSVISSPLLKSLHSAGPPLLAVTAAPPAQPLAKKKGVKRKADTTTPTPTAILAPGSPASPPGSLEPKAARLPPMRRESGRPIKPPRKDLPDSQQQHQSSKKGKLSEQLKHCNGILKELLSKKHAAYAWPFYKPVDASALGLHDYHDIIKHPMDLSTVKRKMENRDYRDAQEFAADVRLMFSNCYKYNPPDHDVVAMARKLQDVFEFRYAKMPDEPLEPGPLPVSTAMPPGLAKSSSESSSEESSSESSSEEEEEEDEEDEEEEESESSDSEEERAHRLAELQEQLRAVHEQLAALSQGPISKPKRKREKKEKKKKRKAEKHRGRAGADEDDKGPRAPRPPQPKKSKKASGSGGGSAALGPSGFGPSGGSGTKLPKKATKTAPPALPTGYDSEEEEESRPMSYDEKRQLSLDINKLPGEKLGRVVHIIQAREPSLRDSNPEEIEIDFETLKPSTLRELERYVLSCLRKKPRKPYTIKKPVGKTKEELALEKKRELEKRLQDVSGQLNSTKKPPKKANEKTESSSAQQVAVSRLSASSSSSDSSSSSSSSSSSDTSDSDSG

COc1cc(OC)c2c(=O)[nH]c(-c3ccc(OCC(=O)Nc4ccc(N5CCN(C)CC5)c(Cl)c4)cc3)nc2c1
IC50 [1]: > 10000 nM
IC50 [2]: 193 nM
IC50 [3]: 180 nM
IC50 [4]: > 10000 nM
Activity (MDA-MB-231 [5]): Active
inhibition (MDA-MB-231 [6]): Dose-dependent effect
Activity (MDA-MB-468 [7]): Dose-dependent effect
Activity (MDA-MB-231 [8]): Dose-dependent effect
Activity (MDA-MB-231 [9]): Dose-dependent effect
Activity (MDA-MB-468 [10]): Active
Activity (MDA-MB-231 [11]): Active
Activity (MDA-MB-468 [12]): Active
Activity (MDA-MB-231 [13]): Active
Activity (MDA-MB-468 [14]): inactive
inhibition (MDA-MB-231 [15]): inactive
inhibition (MDA-MB-468 [16]): inactive
Activity (MDA-MB-231 [17]): inactive
Activity (MDA-MB-468 [18]): inactive
half-life [19]: 4.21 h
half-life [20]: 5.17 h
Cmax [21]: 237 ng/mL
AUC(0-t) [22]: 2080 ng·h/mL
AUC(0-inf) [23]: 2090 ng·h/mL
Activity (MDA-MB-231 [24]): Active
Activity (Mus musculus [25]): Non-Toxic
Activity (Mus musculus [26]): Non-Toxic
Activity (Mus musculus [27]): Non-Toxic
Activity (Mus musculus [28]): Non-Toxic
Activity (Mus musculus [29]): Non-Toxic
Activity (Mus musculus [30]): Non-Toxic
Activity (Mus musculus [31]): Non-Toxic
Activity (Mus musculus [32]): Non-Toxic
Activity (Mus musculus [33]): Non-Toxic
Activity (MDA-MB-231 [34]): Active
Activity (Mus musculus [35]): Active

Reference: ChEMBL document CHEMBL5053557, “Discovery of Novel Dual-Target Inhibitor of Bromodomain-Containing Protein 4/Casein Kinase 2 Inducing Apoptosis and Autophagy-Associated Cell Death for Triple-Negative Breast Cancer Therapy” (J Med Chem, 2021)
